Common to all, as to test: DTP human tumour cell line panel, 48 h
Assay [1] relates to SW-620 colon.
The subject of assay [2] is COLO 205 colon.
Assay [3] deals with SF-295 CNS.
Assay [4] deals with HT29 colon.
Assay [5] has as its system ACHN renal.
In assay [6] the test system is 786-0 renal.
Assay [7] concerns UACC-62 melanoma.
Assay [8] relates to HCT-15 colon.
Assay [9] concerns PC-3 prostate.
Assay [10] deals with NCI-H23 lung.

These results are taken from PubChem BioAssay (NCI).

Where “and” joins values, the source holds several entries; their conditions need not be identical. Identical values can stand only once.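 Each compound was tested at five concentrations against cells in 96-well plates for 48 hours. GI50: concentration for 50% inhibition of growth. At the TGI there is no net growth.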

Regarding `O=C(O)c1cc2ccccc2c2c3c(ccc12)OCO3`, the GI50 in assay [1] was 245 µM; in [2], 171 µM; in [3] it was 157 µM; in assay [4], 281 µM; in assay [5], 221 µM; in [6], 273 µM. In addition, the GI50 in assay [7] was 116 µM; in assay [8], 245 µM; in assay [9], 166 µM; in assay [10], 188 µM. The TGI is above 1000 µM in assay [1]; 368 µM in assay [2]; 618 µM in assay [3]; 791 µM in assay [4]; above 1000 µM in assay [5]; 936 µM in assay [6]. Also, the total growth inhibition concentration (TGI) in [7] is 279 µM; in assay [8], above 1000 µM; in assay [9] it was 559 µM; in [10], 584 µM.

As for `COCCOCCOCc1n(Cc2ccc3ccccc3c2)c2ccccc2[n+]1Cc1ccc2ccccc2c1`, the GI50 was 0.624 µM in assay [1]; 0.27 µM in assay [2]; 0.691 µM in assay [3]; 0.321 µM in [4]; 2.16 µM in assay [5]; 1.31 µM in [6]. The GI50 in assay [7] was 0.329 µM; in assay [8] it was 1.69 µM; in assay [9], 0.344 µM; in assay [10], 0.392 µM. The TGI in [1] is 2.2 µM; in assay [2], 1.15 µM; in [3], 2.16 µM; in assay [4], 1.34 µM; in [5], 5.37 µM; in assay [6], 2.65 µM. Moreover, the TGI in assay [7] is 1.45 µM; in assay [8], 3.36 µM; in assay [9], 1.59 µM; in assay [10] it was 1.73 µM.

For the molecule `CC(C)(C)c1cc(C(=O)Nc2ccc(C(=O)NCCN)cc2)cc(C(C)(C)C)c1`, the GI50 in assay [1] was 1.84 µM; in assay [2] it was 1.85 µM; in assay [3], 1.73 µM; in [4] it was 2 µM; in assay [5], 4.45 µM; in [6] it was 1.56 µM. The GI50 in assay [7] was 1.86 µM; in assay [8] it was 4.75 µM; in [9], 3.07 µM; in [10], 3.19 µM. The TGI in assay [1] turned out to be 3.65 µM; in assay [2], 3.77 µM; in assay [3] it was 3.47 µM; in assay [4], 5.19 µM; in assay [5] it was 18.7 µM; in assay [6] it was 3.07 µM. Moreover, the total growth inhibition concentration (TGI) in assay [7] came out at 3.56 µM; in assay [8] it was 19.4 µM; in assay [9] it was 11 µM; in assay [10], 14.4 µM.

Consider `CCOC(=O)C(Cc1c[nH]c2cc(N(CCO)CCO)ccc12)(NC(C)=O)C(=O)OCC`, for which the GI50 is 398 µM in assay [1]; 274 µM in assay [2]; above 1000 µM in assay [3]; 305 µM in assay [4]; 481 µM in assay [5]; 919 µM in [6]. Further, the GI50 in assay [7] was 66.8 µM; in assay [8] it was 758 µM; in assay [9], 94.9 µM and 160 µM; in assay [10], 491 µM. Besides, the TGI in [1], in assay [2], in assay [3], in [4], in [5] and in [6] was above 1000 µM in each case. Further, the TGI in assay [7], in assay [8], in [9] and in assay [10] was above 1000 µM each time.

With `O=C(Nc1cccc(-n2cc(-c3ccncc3)c(-c3ccc(O)c(Cl)c3)n2)c1)c1ccc2c(c1)OCCO2`, the GI50 was above 100 µM in assay [1]; 89.2 µM in assay [2]; 4.88 µM in assay [3]; 7.03 µM in assay [4]; 7.38 µM in assay [5]; 3.27 µM in [6]. The GI50 is 7.96 µM in assay [7], 3.7 µM in [8], 7.3 µM in [9] and above 100 µM in assay [10]. For the same molecule, the concentration for total growth inhibition (TGI) in assay [1], in assay [2], in assay [3], in [4], in assay [5] and in assay [6] was above 100 µM throughout. Besides, the TGI in assay [7], in [8], in [9] and in [10] was above 100 µM in each case.

Turning to `CCOC(=O)Nc1nc2ccccc2[nH]1`, the GI50 in assay [1] was 3.9 µM and 3.17 µM; in assay [2] it was 3.62 µM and 3.27 µM; in assay [3], 4.32 µM and 5.57 µM; in assay [4], 3.96 µM and 3.99 µM; in assay [5] it was 6.56 µM; in assay [6], 7.37 µM. Moreover, the GI50 in assay [7] is 5.38 µM and 4.46 µM; in assay [8] it was 3.89 µM and 4.14 µM; in [9] it was 6.6 µM and 4.07 µM; in assay [10] it was 8.17 µM and > 21.9 µM. Moreover, the TGI is above 100 µM in [1]; 15.2 µM and > 32.6 µM in assay [2]; above 100 µM in assay [3]; above 100 µM in [4]; above 100 µM in assay [5]; above 100 µM in assay [6]. Besides, the TGI in [7], in assay [8], in [9] and in assay [10] was above 100 µM throughout.

In the case of `CNCC/C=C1\c2cc3c(cc2-c2c1c1cc(OC)c(OC)cc1c(=O)n2C)OCO3`, the 50% growth inhibitory concentration (GI50) was below 0.0142 µM in assay [1]; 1.73 µM in assay [2]; 0.0811 µM in assay [3]; 0.21 µM in [4]; 0.167 µM in [5]; 0.587 µM in assay [6]. Moreover, the GI50 in [7] is 0.344 µM; in assay [8], 0.585 µM; in [9], 0.534 µM; in assay [10], 1.33 µM. In addition, the TGI in [1] was 16.4 µM; in assay [2], 41.2 µM; in [3] it was 15.6 µM; in assay [4] it was above 100 µM; in assay [5], 2.21 µM; in [6] it was 33 µM. The TGI in [7] stood at 2.3 µM; in assay [8], 13 µM; in [9], 10.3 µM; in [10] it was 7.75 µM.
